Data reported in ChEMBL document CHEMBL1201862, “PubChem BioAssay data set” (2004).
Calls of active or inactive are those of the source.

How the values were obtained:
[1] = biological target: Sphingosine 1-phosphate receptor 5 (Homo sapiens, UniProt Q9H228); test: S1P5 receptor agonists, human, late-stage follow-up, counter-screen for S1P4 agonist project, cell-based, fluorescence, set 2 (AID 504867); format: functional
[2] = biological target: Sphingosine 1-phosphate receptor 1 (Homo sapiens, UniProt P21453); test: Late-stage fluorescence-based dose-response cell-based counterscreen assay to identify agonists of the Sphingosine 1-Phosphate Receptor 4 (S1P4): Sphingosine 1-Phosphate Receptor 1 (S1P1) agonist assay Set 2.; format: functional
Chain of Sphingosine 1-phosphate receptor 1 (P21453 whole entry): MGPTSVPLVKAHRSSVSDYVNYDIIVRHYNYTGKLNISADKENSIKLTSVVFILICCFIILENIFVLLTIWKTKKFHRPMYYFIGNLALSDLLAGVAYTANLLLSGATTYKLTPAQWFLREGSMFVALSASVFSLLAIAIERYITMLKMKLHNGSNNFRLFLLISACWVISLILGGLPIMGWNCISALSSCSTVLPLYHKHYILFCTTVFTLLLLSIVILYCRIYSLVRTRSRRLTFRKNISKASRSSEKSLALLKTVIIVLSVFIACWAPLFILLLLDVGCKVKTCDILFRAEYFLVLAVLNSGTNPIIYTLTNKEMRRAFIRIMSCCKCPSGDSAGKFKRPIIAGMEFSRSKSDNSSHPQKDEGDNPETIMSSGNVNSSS

[3] = biological target: Sphingosine 1-phosphate receptor 3 (Homo sapiens, UniProt Q99500); test: Late-stage fluorescence-based dose-response cell-based counterscreen assay to identify agonists of the Sphingosine 1-Phosphate Receptor 4 (S1P4): Sphingosine 1-Phosphate Receptor 3 (S1P3) agonist assay Set 2.; format: functional
Chain of Sphingosine 1-phosphate receptor 3 (Q99500 whole entry): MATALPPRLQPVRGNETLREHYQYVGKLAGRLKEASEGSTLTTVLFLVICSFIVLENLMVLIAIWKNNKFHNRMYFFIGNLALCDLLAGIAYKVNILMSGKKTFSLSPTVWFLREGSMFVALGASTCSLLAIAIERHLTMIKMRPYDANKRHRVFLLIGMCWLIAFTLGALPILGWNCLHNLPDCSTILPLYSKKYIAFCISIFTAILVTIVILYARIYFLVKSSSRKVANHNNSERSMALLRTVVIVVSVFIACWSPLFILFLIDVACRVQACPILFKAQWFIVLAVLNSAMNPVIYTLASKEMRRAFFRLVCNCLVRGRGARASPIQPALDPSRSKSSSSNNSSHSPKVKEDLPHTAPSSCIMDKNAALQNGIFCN

Phospholipase D2 [4] = biological target: T1, Phospholipase D2 (Homo sapiens, UniProt O14939); test: PLD2 inhibitor potency in cells, dose response (AID 602147); format: functional;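 further: cellular assay in HEK293 cells overexpressing GFP-tagged PLD2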
T1 sequence (O14939 whole entry): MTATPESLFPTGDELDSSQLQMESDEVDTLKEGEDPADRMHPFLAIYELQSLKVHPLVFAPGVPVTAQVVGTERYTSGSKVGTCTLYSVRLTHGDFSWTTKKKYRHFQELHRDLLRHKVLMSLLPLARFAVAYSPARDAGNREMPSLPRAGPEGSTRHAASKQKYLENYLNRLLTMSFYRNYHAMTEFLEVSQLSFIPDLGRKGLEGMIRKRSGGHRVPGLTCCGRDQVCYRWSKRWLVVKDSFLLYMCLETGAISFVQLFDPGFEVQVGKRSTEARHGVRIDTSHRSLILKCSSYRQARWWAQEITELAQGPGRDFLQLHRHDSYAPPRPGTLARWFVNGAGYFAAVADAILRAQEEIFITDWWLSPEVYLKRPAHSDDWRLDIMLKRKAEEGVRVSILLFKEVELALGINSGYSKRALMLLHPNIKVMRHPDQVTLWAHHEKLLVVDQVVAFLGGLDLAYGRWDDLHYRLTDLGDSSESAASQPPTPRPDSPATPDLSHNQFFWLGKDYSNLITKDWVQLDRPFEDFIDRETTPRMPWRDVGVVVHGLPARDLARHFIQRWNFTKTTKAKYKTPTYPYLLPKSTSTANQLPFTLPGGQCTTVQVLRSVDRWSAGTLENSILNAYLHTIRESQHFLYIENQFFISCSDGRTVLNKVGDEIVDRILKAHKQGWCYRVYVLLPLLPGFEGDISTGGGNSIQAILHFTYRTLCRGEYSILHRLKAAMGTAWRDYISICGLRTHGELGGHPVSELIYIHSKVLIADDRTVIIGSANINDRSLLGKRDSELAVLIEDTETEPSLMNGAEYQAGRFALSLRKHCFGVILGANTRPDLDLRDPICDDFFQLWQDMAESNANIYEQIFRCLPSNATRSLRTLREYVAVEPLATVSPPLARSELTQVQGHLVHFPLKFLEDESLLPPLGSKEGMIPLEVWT

Phospholipase D1 [5] = biological target: T2, Phospholipase D1 (Homo sapiens, UniProt Q13393); test: PLD1 inhibitor potency in cells, dose response (AID 602151); format: functional;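 further: cellular PLD1 assay in Calu-1 cells stimulated with PMA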
T2 sequence (Q13393 whole entry): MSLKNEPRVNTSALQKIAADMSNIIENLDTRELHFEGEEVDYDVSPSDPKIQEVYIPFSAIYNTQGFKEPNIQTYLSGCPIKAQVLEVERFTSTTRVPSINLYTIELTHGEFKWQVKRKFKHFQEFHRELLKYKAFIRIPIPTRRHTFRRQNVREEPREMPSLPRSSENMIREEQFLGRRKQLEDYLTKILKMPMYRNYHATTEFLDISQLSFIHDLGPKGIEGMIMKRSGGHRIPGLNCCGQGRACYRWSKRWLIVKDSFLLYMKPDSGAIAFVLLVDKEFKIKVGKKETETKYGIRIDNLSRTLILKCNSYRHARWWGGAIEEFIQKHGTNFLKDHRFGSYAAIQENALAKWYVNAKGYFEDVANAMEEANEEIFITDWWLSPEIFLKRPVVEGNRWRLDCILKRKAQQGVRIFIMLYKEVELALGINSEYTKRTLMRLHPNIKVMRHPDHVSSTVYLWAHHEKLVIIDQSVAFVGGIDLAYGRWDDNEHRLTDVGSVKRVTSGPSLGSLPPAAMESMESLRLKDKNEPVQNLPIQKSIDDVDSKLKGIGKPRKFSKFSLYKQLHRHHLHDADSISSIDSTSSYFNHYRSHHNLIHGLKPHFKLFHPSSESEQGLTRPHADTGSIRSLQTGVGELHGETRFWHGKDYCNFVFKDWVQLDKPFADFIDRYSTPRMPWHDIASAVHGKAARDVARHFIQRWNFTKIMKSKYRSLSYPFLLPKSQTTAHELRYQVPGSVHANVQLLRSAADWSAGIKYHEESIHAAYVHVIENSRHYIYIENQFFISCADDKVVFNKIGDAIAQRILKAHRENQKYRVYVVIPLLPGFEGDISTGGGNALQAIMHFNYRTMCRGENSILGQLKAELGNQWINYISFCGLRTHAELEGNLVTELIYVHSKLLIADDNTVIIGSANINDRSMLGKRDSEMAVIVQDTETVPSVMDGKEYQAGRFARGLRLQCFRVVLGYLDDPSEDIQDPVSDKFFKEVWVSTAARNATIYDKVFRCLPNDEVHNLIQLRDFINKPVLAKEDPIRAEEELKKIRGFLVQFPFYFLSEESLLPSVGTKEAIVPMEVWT

[6] = biological target: T3, Microphthalmia-associated transcription factor (Homo sapiens, UniProt O75030); test: TRPM1 promoter luciferase signal decrease, dose response, MITF inhibitor project, cell-based, SK-MEL-5, cherry-picked, set 3 (AID 493073); format: functional
T3 sequence (O75030 whole entry): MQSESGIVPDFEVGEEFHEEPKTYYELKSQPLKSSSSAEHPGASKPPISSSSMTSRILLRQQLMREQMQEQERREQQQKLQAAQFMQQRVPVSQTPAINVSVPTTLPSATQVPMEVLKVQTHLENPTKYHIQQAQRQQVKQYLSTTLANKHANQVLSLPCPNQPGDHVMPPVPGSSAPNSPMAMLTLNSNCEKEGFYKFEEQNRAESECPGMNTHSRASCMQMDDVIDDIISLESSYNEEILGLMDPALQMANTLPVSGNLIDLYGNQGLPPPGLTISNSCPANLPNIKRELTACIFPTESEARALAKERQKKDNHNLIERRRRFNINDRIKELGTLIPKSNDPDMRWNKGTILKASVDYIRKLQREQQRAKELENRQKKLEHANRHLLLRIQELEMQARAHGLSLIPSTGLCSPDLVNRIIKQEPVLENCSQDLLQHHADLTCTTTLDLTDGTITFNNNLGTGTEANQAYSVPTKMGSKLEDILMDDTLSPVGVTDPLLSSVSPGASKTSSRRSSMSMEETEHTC

A-375 [7] = test: MITF: Counter assay: A375 proliferation Measured in Cell-Based System Using Plate Reader - 2084-03_Inhibitor_Dose_DryPowder_Activity. [Related pubchem assays (depositor defined):AID488944]; format: functional; conditions: Homo sapiens
Streptokinase A = biological target: T4, Streptokinase A (Streptococcus pyogenes serotype M1, UniProt P10520); test: S. pyogenes streptokinase expression inhibitors, potency, dose response, plasminogen activation absorbance, OD405 (AID 1914); format: functional, Streptococcus pyogenes M1 GAS;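 further: secreted streptokinase activity via plasminogen activation per viability signal from cell pellet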
T4 sequence (P10520 whole entry): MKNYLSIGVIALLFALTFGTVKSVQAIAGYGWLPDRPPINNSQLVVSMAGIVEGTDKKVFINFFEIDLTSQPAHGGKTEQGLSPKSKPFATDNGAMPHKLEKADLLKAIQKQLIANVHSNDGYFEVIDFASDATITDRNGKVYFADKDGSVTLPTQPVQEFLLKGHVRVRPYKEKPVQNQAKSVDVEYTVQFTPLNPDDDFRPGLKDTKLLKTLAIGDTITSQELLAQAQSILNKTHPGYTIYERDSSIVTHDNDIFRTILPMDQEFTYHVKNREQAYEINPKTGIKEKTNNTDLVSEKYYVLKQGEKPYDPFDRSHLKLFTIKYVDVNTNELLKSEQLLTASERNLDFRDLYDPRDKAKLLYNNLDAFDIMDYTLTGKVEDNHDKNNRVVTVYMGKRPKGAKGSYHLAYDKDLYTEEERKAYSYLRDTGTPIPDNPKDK

A-375 [8] = test: A375 melanoma cell viability reduction, dose response, counter-screen for MITF modulator project, cherry-pick samples, set 2 (AID 540335); format: functional, cell-based; conditions: Homo sapiens
[9] = inhibitors of intracellular T. cruzi replication, confirmation, NIH3T3 host cells, beta-gal luminescence (AID 2044); format: functional, cell-based;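 further: intracellular parasites grown in NIH/3T3 mouse fibroblasts as host cells; luminescent beta-galactosidase reporter signal from transgenic T. cruzi replicating inside host cells; inhibitors lower the luminescence signal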
[10] = cytotoxicity toward NIH3T3 fibroblasts, dose response, counter-screen, cell-based, ATP luminescence, mouse fibroblasts (AID 2010); format: functional;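 further: cells exposed to compound for about 90 hours before reading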
[11] = test system: Streptococcus sp. 'group A'; test: growth inhibition of control SK(-) GAS strain, dose response, counter-screen for streptokinase expression inhibitor project, luminescence, kanamycin, BacTiterGlo, confirmation (AID 1900); format: functional, organism-based
Streptococcus = test: Group A Streptococcus viability loss, dose response, counter-screen for streptokinase expression inhibitor project, luminescence, BacTiterGlo (AID 1915); format: functional, organism-based;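 further: potency for reduction of bacterial viability or growth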
[12] = Luminescence Cell-Based Dose Retest to Confirm Inhibitors of Cancer Stem Cells. [Related pubchem assays (depositor defined):AID2717, AID2721]; format: functional; conditions: Homo sapiens
[13] = cytotoxicity toward Colo320 cells – cell-based, CellTiter-Glo luminescence, IC50, dose response (AID 1117334); format: functional; conditions: COLO 320
HEK293 = test: cells; format: functional, cell-based; conditions: Homo sapiens
[14] = cytotoxicity toward HT-29 cells – cell-based, CellTiter-Glo luminescence, IC50, dose response (AID 1117330); format: functional
[15] = HCT116 cell viability decrease, GSK3B pretreatment – CellTiter-Glo, IC50, dose response (AID 1117339); format: functional; conditions: HCT-116
[16] = RKO cell viability reduction, dose response, CellTiter-Glo luminescence (AID 1117322); format: functional
cells [17] = format: functional, cell-based
[18] = Concentration-dependent survival of SW480 colon cancer line, luminescence detection with CellTiter-Glo, half-maximal inhibitory concentration (AID 1117338); format: functional
[19] = biological target: Nuclear receptor subfamily 0 group B member 1 (Homo sapiens, UniProt P51843); test: Luminescence-based cell-based high throughput dose response assay for inhibitors of the orphan nuclear receptor subfamily 0, group B, member 1 (DAX1; NR0B1). [Related pubchem assays (depositor defined):AID504766, AID504790]; format: functional
Chain of Nuclear receptor subfamily 0 group B member 1 (P51843 whole entry): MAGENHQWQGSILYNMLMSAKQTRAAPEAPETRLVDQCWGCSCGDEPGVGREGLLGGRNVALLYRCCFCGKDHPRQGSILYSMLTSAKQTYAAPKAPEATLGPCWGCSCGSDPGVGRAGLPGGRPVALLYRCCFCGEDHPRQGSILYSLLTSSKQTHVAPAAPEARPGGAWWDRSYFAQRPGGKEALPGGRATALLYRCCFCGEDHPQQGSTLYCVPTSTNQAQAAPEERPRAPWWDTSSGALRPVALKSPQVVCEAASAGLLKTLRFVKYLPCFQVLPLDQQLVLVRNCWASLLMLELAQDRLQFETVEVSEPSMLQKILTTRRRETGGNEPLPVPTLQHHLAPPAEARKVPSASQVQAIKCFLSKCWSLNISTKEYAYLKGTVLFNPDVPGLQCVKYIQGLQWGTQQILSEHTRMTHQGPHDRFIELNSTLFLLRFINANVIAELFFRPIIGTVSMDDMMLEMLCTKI

[20] = SNU-C1 cell viability reduction, dose response, CellTiter-Glo luminescence (AID 1117323); format: functional, cell-based
[21] = cytotoxicity toward HCT116 cells – cell-based, CellTiter-Glo luminescence, IC50, dose response (AID 1117332); format: functional; conditions: HCT-116
cells [22] = format: functional, cell-based; remark: listed apart in the source
[23] = CellTiter-Glo luminescent dose response of DLD-1 viability loss (AID 1117352); format: functional
[24] = biological target: T5, Oxysterols receptor LXR-beta (Homo sapiens, UniProt P55055); format: functional, cell-based;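 further: agonist activity at LXR measured by a cell-based luminescence readout across a dose range, run as a counterscreen for daf-12 agonists; HEK293 cells with Gal4-LXR fusion and GAL4-driven luciferase reporter; potency for activation of Gal4-LXR reporter so compounds are agonists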
T5 sequence (P55055 whole entry): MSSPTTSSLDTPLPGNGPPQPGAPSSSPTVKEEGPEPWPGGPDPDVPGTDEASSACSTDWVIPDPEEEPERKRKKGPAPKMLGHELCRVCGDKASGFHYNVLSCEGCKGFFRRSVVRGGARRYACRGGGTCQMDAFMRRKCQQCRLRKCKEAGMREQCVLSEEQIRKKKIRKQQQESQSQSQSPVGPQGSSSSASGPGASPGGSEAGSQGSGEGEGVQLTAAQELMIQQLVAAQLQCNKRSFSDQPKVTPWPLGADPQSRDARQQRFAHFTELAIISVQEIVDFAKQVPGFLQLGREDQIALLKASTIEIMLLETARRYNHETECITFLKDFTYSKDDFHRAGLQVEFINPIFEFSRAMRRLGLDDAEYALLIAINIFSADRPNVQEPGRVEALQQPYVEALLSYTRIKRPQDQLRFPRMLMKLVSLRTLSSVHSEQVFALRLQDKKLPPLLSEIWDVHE

Candida albicans [25] = test: reversal of fluconazole resistance in C. albicans, dose response, CaCi-2 strain, Alamar Blue, dry powder, set 3 (AID 488907); format: functional, organism-based
Candida albicans [26] = test: growth inhibition of azole-resistant C. albicans, dose response, CaCi-8 strain, Alamar Blue, dry powder, set 3 (AID 488905); format: functional, organism-based
Candida albicans [27] = test: growth inhibition of resistant C. albicans, dose response, CaCi-8 strain, fluconazole, dry powder, set 4 (AID 488950); format: functional, organism-based
Candida albicans [28] = test: fluconazole resistance reversal in C. albicans, dose response, CaCi-2 strain, Alamar Blue, dry powder, set 4 (AID 488943); format: functional, organism-based
Candida albicans [29] = test: Candida albicans growth inhibition, agent alone, dose response, counter-screen for reversing antifungal drug resistance, CaCi-2 strain, no fluconazole, dry powder, set 4 (AID 488932); format: functional, organism-based
INS1 [30] = test: protection of INS-1E cells from cytokine death, dose response, ATP luminescence, dry powder (AID 488844); format: functional, cell-based; conditions: Rattus norvegicus
INS1 [31] = test: inhibitors of cytokine-induced nitrite release, dose response, cell-based, Griess absorbance, INS-1E, dry powder, set 2 (AID 488868); format: functional; conditions: Rattus norvegicus
INS1 [32] = test: inhibitors of cytokine-induced nitrite release, dose response, cell-based, Griess absorbance, INS-1E, dry powder (AID 488866); format: functional; conditions: Rattus norvegicus
[33] = inhibitors of cytokine-induced nitrite release, dose response, cell-based, Griess absorbance, INS-1E, dry powder, set 3 (AID 488870); format: functional; conditions: Rattus norvegicus
Phospholipase D2 [34] = biological target: T1, Phospholipase D2; test: PLD2 purified enzyme concentration response. [Related pubchem assays (depositor defined):AID588854]; format: functional
Phospholipase D1 [35] = biological target: T2, Phospholipase D1; test: PLD1 purified enzyme concentration response. [Related pubchem assays (depositor defined):AID588854]; format: functional
MEF = test: SAR analysis of small molecule cytotoxicity of MazEF TA System activators in embryonic fibroblast (MEF) cells. [Related pubchem assays (depositor defined):AID504720, AID504743]; format: functional; conditions: Mus musculus
[36] = biological target: T6, Endoribonuclease toxin MazF (Escherichia coli K-12, UniProt P0AE70); test: MazF endoribonuclease activators, SAR follow-up, biochemical, fluorescence, single-stranded RNA substrate (AID 588603); format: functional
T6 sequence (P0AE70 whole entry): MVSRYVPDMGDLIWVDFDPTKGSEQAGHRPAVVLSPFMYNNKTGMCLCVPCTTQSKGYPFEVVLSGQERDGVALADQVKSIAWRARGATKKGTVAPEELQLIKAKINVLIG

[37] = biological target: T6, Endoribonuclease toxin MazF; test: SAR analysis of small molecule activators of the MazEF TA System via a fluorescence-based single-stranded RNase assay counterscreen. [Related pubchem assays (depositor defined):AID504720, AID504743]; format: functional
[38] = biological target: T6, Endoribonuclease toxin MazF; test: MazF toxin RNase activators, dose response, biochemical, fluorescence, single-stranded RNA substrate, uHTS hits (AID 588481); format: functional
[39] = biological target: T6, Endoribonuclease toxin MazF; test: fluorescent RNA oligo signal without MazF, dose response, counter-screen for MazEF activator project, biochemical, fluorescence, single-stranded RNase substrate (AID 588502); format: functional

Chain of Sphingosine 1-phosphate receptor 5 (Q9H228 whole entry): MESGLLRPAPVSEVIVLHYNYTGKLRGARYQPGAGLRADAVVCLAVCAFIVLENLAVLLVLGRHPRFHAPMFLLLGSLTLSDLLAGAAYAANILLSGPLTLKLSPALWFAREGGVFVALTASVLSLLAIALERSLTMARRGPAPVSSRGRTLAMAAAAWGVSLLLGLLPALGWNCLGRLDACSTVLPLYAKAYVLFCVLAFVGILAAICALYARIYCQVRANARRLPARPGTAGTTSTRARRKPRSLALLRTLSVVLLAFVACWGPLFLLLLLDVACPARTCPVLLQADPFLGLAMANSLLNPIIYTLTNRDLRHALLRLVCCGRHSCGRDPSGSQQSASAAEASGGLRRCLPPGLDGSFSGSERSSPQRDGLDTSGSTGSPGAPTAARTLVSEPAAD

SMILES: CC/N=C1/SC(=Cc2cc(C)n(Cc3ccccc3OC)c2C)C(=O)N1CC
- EC50 [1]: 0.106 µM (active)
- EC50 [2]: 0.18 µM (active)
- EC50 [3]: 13.7 µM (inactive)

SMILES: O=C(NCCN1CCC(n2c(=O)[nH]c3ccccc32)CC1)c1cc2ccccc2c2ccccc12
- IC50 (Phospholipase D2 [4]): 0.42 µM (active)
- IC50 (Phospholipase D1 [5]): 0.016 µM (active)

SMILES: O=C(Nc1cccc(Cl)c1)Nc1cc(S(=O)(=O)N2CCCCC2)ccc1Cl
- AC50 [6]: 12 µM (active)
- AC50 (A-375 [7]): > 11 µM (active)
- EC50 (Streptokinase A): 4.59 µM (active)
- AC50 (A-375 [8]): > 11 µM (active)
- EC50 [9]: 1.91 µM (active)
- EC50 [10]: > 60 µM (not active)
- EC50 [11]: 11.8 µM (active)
- EC50 (Streptococcus): 26.6 µM (active)
- AC50 [12]: 2.59 µM (active)

SMILES: Nc1ccc(C(=O)Nc2ccccc2N)cc1 [DINALINE]
- IC50 [13]: > 20 µM (inactive)
- IC50 (HEK293): 0.255 µM (active)
- IC50 [14]: > 20 µM (inactive)
- IC50 [15]: 12.9 µM (inactive)
- IC50 [16]: > 20 µM (inactive)
- EC50 (cells [17]): > 350 µM (not active)
- IC50 [18]: > 20 µM (inactive)
- IC50 [19]: 19.8 µM (inactive)
- IC50 [20]: > 20 µM (inactive)
- IC50 [21]: > 6.67 µM (inactive)
- EC50 (cells [22]): 18.7 µM (active)
- IC50 [23]: > 20 µM (inactive)
- EC50 [24]: > 67.6 µM (inactive)

SMILES: O=C(c1ccc(Cl)cc1)N1CCN(c2nccs2)CC1
- AC50 (Candida albicans [25]): 0.555 µM (active)
- AC50 (Candida albicans [26]): 20 µM (active)
- AC50 (Candida albicans [27]): 3.77 µM (active)
- AC50 (Candida albicans [28]): 3.24 µM (active)
- AC50 (Candida albicans [29]): 195 µM (active)

SMILES: COc1ccc(S(=O)(=O)N(C)C[C@@H]2Oc3c(NC(=O)Nc4cccc5ccccc45)cccc3C(=O)N([C@@H](C)CO)C[C@H]2C)c(OC)c1
- AC50 (INS1 [30]): 45.5 µM (active)
- AC50 (INS1 [31]): > 260 µM (inactive)
- AC50 (INS1 [32]): 74.1 µM (active)
- AC50 [33]: 27.7 µM (active)

SMILES: C[C@@H](CN1CCC2(CC1)C(=O)NCN2c1ccccc1)NC(=O)c1ccc(F)c(F)c1
- IC50 (Phospholipase D2 [4]): 0.21 µM (active)
- IC50 (Phospholipase D2 [34]): 2.22 µM (active)
- IC50 (Phospholipase D1 [35]): 2.15 µM (active)

SMILES: CCC(C)NC(=O)c1ccc(CNS(=O)(=O)c2ccc3c(c2)C(C)(C)C(=O)N3C)cc1 (centres undefined)
- CC50 (MEF): > 99 µM (inactive)
- EC50 [36]: 21.8 µM (inactive)
- EC50 [37]: > 99 µM (inactive)
- EC50 [38]: 15.9 µM (active)
- EC50 [39]: > 99 µM (inactive)
